Laboratory results from ChEMBL document CHEMBL4028815, “Novel phosphonate analogs of sulforaphane: Synthesis, in vitro and in vivo anticancer activity” (Eur J Med Chem, 2017).
The source made the active and inactive calls. The rule behind the calls is not given here.

How the values were obtained:
[1] = Resistance index, ratio of IC50 for human MESSA/DX5 cells to IC50 for human MESSA cells; format: functional
[2] = test system: MES-SA; experiment: Cytotoxicity against human MESSA cells after 72 hrs by sulforhodamine B assay; format: functional, cell-based
[3] = test system: MES-SA/Dx5; experiment: Cytotoxicity against human MESSA/DX5 cells after 72 hrs by sulforhodamine B assay; format: functional, cell-based; conditions: MES-SA/Dx5, 72 h
[4] = Cytotoxicity against human LoVo/DX cells after 72 hrs by sulforhodamine B assay; format: functional, cell-based
[5] = test system: LoVo; experiment: Cytotoxicity against human LoVo cells after 72 hrs by sulforhodamine B assay; format: functional, cell-based
[6] = test system: LoVo; experiment: Potency index, ratio of sulforaphane IC50 to compound IC50 for human LoVo cells; format: functional
[7] = test system: LoVo; experiment: Potency index, ratio of benzyl isothiocyanate IC50 to compound IC50 for human LoVo cells; format: functional
[8] = test system: LoVo; experiment: Induction of apoptosis in human LoVo cells assessed as necrotic cells at 15 uM after 24 hrs by APC-Annexin-V/propidium iodide staining based flow cytometric method (reference value: 10%); format: functional
[9] = test system: LoVo; experiment: Induction of apoptosis in human LoVo cells assessed as increase in caspase3/7 activity at 15 uM using Ac-DEVD-ACC as substrate pretreated for 24 hrs followed by substrate addition measured for 2 hrs by fluorescence assay relative to control; format: functional
[10] = test system: LoVo; experiment: Induction of apoptosis in human LoVo cells assessed as increase in early apoptotic cells at 15 uM after 24 hrs by APC-Annexin-V/propidium iodide staining based flow cytometric method relative to control; format: functional
[11] = Induction of apoptosis in human LoVo/DX cells assessed as loss of mitochondrial membrane potential at 15 uM after 24 hrs by JC-1 staining based flow cytometric method relative to control; format: functional
[12] = test system: LoVo/DX; experiment: Induction of apoptosis in human LoVo/DX cells assessed as late apoptotic cells at 15 uM after 24 hrs by APC-Annexin-V/propidium iodide staining based flow cytometric method relative to control; format: functional
[13] = Induction of apoptosis in human LoVo/DX cells assessed as increase in caspase3/7 activity at 15 uM using Ac-DEVD-ACC as substrate pretreated for 24 hrs followed by substrate addition measured for 2 hrs by fluorescence assay relative to control; format: functional
[14] = test system: LoVo; experiment: Induction of apoptosis in human LoVo cells assessed as loss of mitochondrial membrane potential at 15 uM after 24 hrs by JC-1 staining based flow cytometric method relative to control; format: functional
[15] = test system: LoVo; experiment: Induction of apoptosis in human LoVo cells assessed as late apoptotic cells at 15 uM after 24 hrs by APC-Annexin-V/propidium iodide staining based flow cytometric method relative to control; format: functional

Row | Compound | IC50 [4] | IC50 [5] | other results
1 | COc1cccc2c1C(=O)c1c(O)c3c(c(O)c1C2=O)C[C@@](O)(C(=O)CO)C[C@@H]3O[C@H]1C[C@H](N)[C@H](O)[C@H](C)O1 [DOXORUBICIN] | 12.2 µM | 0.3 µM | Ratio IC50 [1]: 100; IC50 [2]: 0.1 µM; IC50 [3]: 13.9 µM
2 | O=P(CCN=C=S)(OCC(F)(F)F)OCC(F)(F)F | 8.2 µM | 5.5 µM | 
3 | O=P(CCCCCCN=C=S)(OCC(F)(F)F)OCC(F)(F)F | 8.8 µM | 4.2 µM | 
4 | CCOP(=O)(CCCCCN=C=S)OCC | 3.1 µM | 2.8 µM | Ratio IC50 [6]: 10; Ratio IC50 [7]: 5
5 | COP(=O)(CCCCCCN=C=S)OC | 9.9 µM | 5.4 µM | 
6 | C[S+]([O-])CCCCN=C=S (stereo not drawn) [SULFORAPHANE] | 18.1 µM | 22.9 µM | Activity [8]: Active; fold change (FC) [9]: 1.41; Activity [10]: inactive; Activity [11]: 35%; Activity [12]: Active; fold change (FC) [13]: 2.52; Activity [14]: 35%; Activity [15]: Active
7 | CC(C)COP(=O)(CCCCCN=C=S)OCC(C)C | 5.1 µM | 2.4 µM | Ratio IC50 [6]: 10; Ratio IC50 [7]: 5
8 | O=P(CCCCCN=C=S)(Oc1ccccc1)Oc1ccccc1 | 4.6 µM | 2.2 µM | Ratio IC50 [6]: 10; Ratio IC50 [7]: 5
9 | CCOP(=O)(CCCCCCCCCCN=C=S)OCC | 13.1 µM | 10 µM | 
10 | O=P(CCCCCN=C=S)(OCc1ccccc1)OCc1ccccc1 | 8.5 µM | 3.5 µM | 
11 | O=P(CCCCN=C=S)(OCc1ccccc1)OCc1ccccc1 | 8.4 µM | 3.8 µM | 
12 | COP(=O)(CCCN=C=S)OC | 9.6 µM | 9.3 µM | 
13 | COP(=O)(CCCCCN=C=S)OC | 9.4 µM | 5 µM | 
14 | O=P(CCCN=C=S)(OCC(F)(F)F)OCC(F)(F)F | 4.7 µM | 3.9 µM | 
15 | CCOP(=O)(CCCCN=C=S)OCC | 10.2 µM | 4.6 µM | 
16 | CCOP(=O)(CCN=C=S)OCC | 6.1 µM | 4.5 µM | 
17 | C=CCOP(=O)(CCCCN=C=S)OCC=C | 3.7 µM | 5.2 µM | 
18 | O=P(CCN=C=S)(Oc1ccccc1)Oc1ccccc1 | 11.4 µM | 10.5 µM | 
19 | O=P(CCCCN=C=S)(OCC(F)(F)F)OCC(F)(F)F | 5.7 µM | 4.9 µM | 
20 | O=P(CCCN=C=S)(Oc1ccccc1)Oc1ccccc1 | 10.2 µM | 4.2 µM | 
21 | CC(C)OP(=O)(CCCCCN=C=S)OC(C)C | 7.9 µM | 2.6 µM | Ratio IC50 [6]: 10; Ratio IC50 [7]: 5
22 | COP(=O)(CCN=C=S)OC | 12.4 µM | 12.3 µM | 
